Where two headings read alike, the source gives them in different places.
Columns and labels:
ERK1/2 phosphorylation = experiment: Western ERK1/2 Cell-Based Phosphorylation Assay; conditions: Homo sapiens, PANC-1, 6 hours, EGF 1.5 ng/ml, read-out: % inh of ERK1/2 phosphorylation in PANC-1
Method: Cell lines: Human tumor-derived pancreatic cancer cell line Panc-1 was purchased from American Type Culture Collection and grown in complete DMEM-High Glucose, supplemented with penicillin (100 U/mL), streptomycin (100 μg/mL), and 10% heat-inactivated FBS at 37° C. in a humidified incubator with 5% CO2.
(§1) Method: Cells were plated at 350000 cells/well density in a 12-well plate, allowed 3 hours to adhere to the plate, then starved in the appropriate medium in the presence of 0.5% FBS overnight. The small molecules to be tested were added to the cells in the final concentration of 10 μM in the presence of 0.3% DMSO for 6 hours incubation at 37° C. For IC50 value determination, serial dilutions of compounds were added to cells under the same conditions. Next, cells were stimulated with 1.5 ng/ml EGF for 15 minutes then cells were lysed with lysis buffer containing 1% Triton X-100, EDTA, and Halt™ Protease & Phosphatase Inhibitor Cocktail (Thermo Scientific). Protein concentration was assessed by BCA protein assay (Thermo Scientific). Phosphorylation level of ERK1/2 was determined by western blot.
(§2) Western blot protocol: Equal amounts of protein (15-50 μg) were separated by SDS-PAGE and transferred to nitrocellulose membranes (Invitrogen by Thermo Fisher Scientific). The membrane was stained with Ponceau S Stain (Boston BioProducts) to verify uniform protein loading. Membranes were blocked with 10% milk and phosphorylation levels of ERK1/2 were assessed by incubating overnight at 4° C. with anti-phospho-p44/42 (Thr202/Tyr204) antibody (Cell Signaling) followed by HRP-conjugated secondary antibody (Jackson Immunoresearch, West Grove, PA). Bands were incubated in Amersham ECL Prime Western Blotting Detection Reagent (GE Healthcare) and visualized using the ChemiDoc MP imaging system (Bio-Rad).

AKT phosphorylation = experiment: Western AKT Cell-Based Phosphorylation Assay; conditions: Homo sapiens, PANC-1, 6 hours, EGF 1.5 ng/ml, read-out: % inh of AKT phosphorylation in PANC-1
Method: Human tumor-derived pancreatic cancer cell line Panc-1 was purchased from American Type Culture Collection and grown in complete DMEM-High Glucose supplemented with penicillin (100 U/mL), streptomycin (100 μg/mL), and 10% heat-inactivated FBS at 37° C. in a humidified incubator with 5% CO2.
as §1, with “C.” for “C. For IC50 value determination, serial dilutions of compounds were added to cells under the same conditions.”, “Akt” for “ERK1/2”
as §2, with “Akt” for “ERK1/2”, “anti-phospho-Akt (Ser473)” for “anti-phospho-p44/42 (Thr202/Tyr204)”

MiaPaca2 = MiaPaca2 proliferation; assay type: cell-based; conditions: Homo sapiens, MIA PaCa-2; for inhibition at 10 µM: read-out: % inh of proliferation in MiaPaca2
KRas Q61H mutant = KRas Q61H mutant (Homo sapiens (Human), UniProt P01116, Q61H); experiment: Ras GTP Binding Domain Inhibition Assay, KRas Q61H mutant; conditions: 20 μM
Chain of KRas Q61H mutant (P01116 other isoform, or with tags, fused parts or gaps Q61H): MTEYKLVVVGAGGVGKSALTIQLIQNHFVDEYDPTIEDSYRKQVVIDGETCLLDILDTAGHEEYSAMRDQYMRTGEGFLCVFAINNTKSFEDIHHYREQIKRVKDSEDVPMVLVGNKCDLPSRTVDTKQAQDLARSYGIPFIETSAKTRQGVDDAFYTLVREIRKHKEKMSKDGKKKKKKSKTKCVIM
Method: A Ras Superfamily Activity Assay (as disclosed in International Application No. PCT/US2018/038613, filed Jun. 20, 2018, which is incorporated by reference in its entirety) was used as a specific assay to evaluate compounds against the following for the following Ras Superfamily proteins: KRas wild type, KRas Q61H mutant, KRas G12C mutant, KRas G12D mutant, Rac-1, and Rho-A.
Buffer-I: • 25 mM Tris-HCl, pH 7.4 • 27 mM KCl • 137 mM NaCl • 1 mM MgCl2 • 1 mM DTT
Buffer-II: • 50 mM Tris-HCl, pH 7.0 • 1 mM MgCl2 • 1 mM DTT
The small GTPases proteins: KRas wild type. KRas Q61H mutant, KRas G12C mutant, KRas G12D mutants, Rac-1, and Rho-A were expressed as His-tagged proteins. In addition, the Guanosine nucleotide Exchange Factor (GEF) Sos protein (residues 556-1049) was expressed as a His-tagged protein. In cells, the guanine nucleotide exchange factor Sos protein promotes activation of Ras proteins by stimulating an exchange of GDP for GTP. The inclusion of Sos to the Ras GTP binding domain inhibition assay may be considered as an alternative representation of physiological cellular conditions for evaluating the inhibitory activity of some of the tested small molecules.
For the assay, all purified small GTPases proteins were diluted in Buffer-I or Buffer-II to a final concentration of 10-30 μg/mL. 200 μL of each diluted protein was added to a nickel-coated 96-well plate and incubated overnight at 4° C. Then the protein solution was discarded and 200 μL of Buffer-I or Buffer-II was added to each well in the presence of 1% DMSO. Compounds to be tested were added to the protein-coated wells at final concentration of 20 μM, and incubated for 3 hours at room temperature with and without 10-30 μg/mL of Sos added to the final hour of the incubation. When performing IC50 measurements a serial dilution of all tested concentrations was added. Then Cy3-GTP or Cy5-GTP was added to each well to a final concentration of 100 nM. The labeled GTP was incubated for 45 minutes at room temperature. Following GTP incubation, wells were washed 3× in Buffer-I or Buffer-II and 200 μL of Buffer-I or Buffer-II was added to each well. Following washes, the amount of bound labeled-GTP was measured using a SpectraMax M3 (Molecular Devices).

[1] = + SOS, read-out: KRas Q61H mutant + SOS: % inh.
[2] = without SOS, read-out: KRas Q61H mutant: % inh.

SMILES | inhibition at 10 µM (ERK1/2 phosphorylation) [%] | inhibition at 10 µM (AKT phosphorylation) [%] | IC50 (MiaPaca2) [µM] | inhibition at 10 µM (MiaPaca2) [%] | inhibition at 20 µM (KRas Q61H mutant; [1]) [%] | inhibition at 20 µM (KRas Q61H mutant; [2]) [%]
COc1cc(Cn2c(-c3nccn3C)nc3sc(-c4ccn(C(C)C)n4)c(C)c3c2=O)ncn1 [Compound 35, 6-(1-Isopropyl-1H-pyrazol-3-yl)-3-((6-methoxypyrimidin-4-yl)methyl)-5-methyl-2-(1-methyl-1H-imidazol-2-yl)thieno[2,3-d]pyrimidin-4(3H)-one] | 0 | 0 | > 10 | 0 | 1 to 25 | 1 to 25
Cc1c(-c2ccn(C(C)C)n2)sc2nc(-c3nccn3C)nc(NCC3COCCN3C)c12 (racemic) [Compound 24, rac-6-(1-Isopropyl-1H-pyrazol-3-yl)-5-methyl-2-(1-methyl-1H-imidazol-2-yl)-N-((4-methylmorpholin-3-yl)methyl)thieno[2,3-d]pyrimidin-4-amine] | 0 | 0 | 5 to 10 | 76 to 100 | 76 to 100 | 46 to 75
COCCCn1c(-c2nccn2C)nc2sc(-c3ccn(C(C)C)n3)c(C)c2c1=O [Compound 31, 6-(1-Isopropyl-1H-pyrazol-3-yl)-3-(3-methoxypropyl)-5-methyl-2-(1-methyl-1H-imidazol-2-yl)thieno[2,3-d]pyrimidin-4(3H)-one] | 0 | 0 | > 10 | 0 | 0 | 0
COc1cc(Nc2nc(-c3nccn3C)nc3sc(-c4ccn(C(C)C)n4)c(C)c23)ncn1 [Compound 19, 6-(1-Isopropyl-1H-pyrazol-3-yl)-N-(6-methoxypyrimidin-4-yl)-5-methyl-2-(1-methyl-1H-imidazol-2-yl)thieno[2,3-d]pyrimidin-4-amine] | 76 to 100 | 76 to 100 | 1 to 4.99 | 76 to 100 | 76 to 100 | 76 to 100
COc1cccc(-c2sc3nc(-c4nccn4C)nc(N[C@H]4C[C@H](OC)C4)c3c2C)c1F [Compound 42, 6-(2-Fluoro-3-methoxyphenyl)-N-((1r,3r)-3-methoxycyclobutyl)-5-methyl-2-(1-methyl-1H-imidazol-2-yl)thieno[2,3-d]pyrimidin-4-amine] | 46 to 75 | 26 to 45 | 5 to 10 | 76 to 100 | 76 to 100 | 46 to 75
COCCn1ccc(-c2sc3nc(-c4nccn4C)nc(N[C@@H]4CC[C@H](OC)C4)c3c2C)n1 (racemic) [Compound 39, rac-N-((1R,3S)-3-Methoxycyclopentyl)-6-(1-(2-methoxyethyl)-1H-pyrazol-3-yl)-5-methyl-2-(1-methyl-1H-imidazol-2-yl)thieno[2,3-d]pyrimidin-4-amine] | 1 to 25 | 76 to 100 | 5 to 10 | 76 to 100 | 76 to 100 | 76 to 100
COc1cc(-c2sc3nc(-c4nccn4C)nc(N[C@@H]4CC[C@H](OC)C4)c3c2-c2ccccc2)ccn1 (racemic) [Compound 44, rac-N-((1R,3S)-3-Methoxycyclopentyl)-6-(2-methoxypyridin-4-yl)-2-(1-methyl-1H-imidazol-2-yl)-5-phenylthieno[2,3-d]pyrimidin-4-amine] | 46 to 75 | 76 to 100 | 5 to 10 | 76 to 100 | 76 to 100 | 26 to 45
COCCCn1c(-c2nccn2C)nc2sc(-c3ccn(C(C)C)n3)c(-c3ccccc3)c2c1=O [Compound 36, 6-(1-Isopropyl-1H-pyrazol-3-yl)-3-(3-methoxypropyl)-2-(1-methyl-1H-imidazol-2-yl)-5-phenylthieno[2,3-d]pyrimidin-4(3H)-one] | 0 | 0 | 5 to 10 | 76 to 100 | 0 | 0
COCC1CN(c2nc(-c3nccn3C)nc3sc(-c4ccn(C(C)C)n4)c(C)c23)CCO1 (racemic) [Compound 15, 4-(6-(1-Isopropyl-1H-pyrazol-3-yl)-5-methyl-2-(1-methyl-1H-imidazol-2-yl)thieno[2,3-d]pyrimidin-4-yl)-2-(methoxymethyl)morpholine] | 46 to 75 | 76 to 100 | 5 to 10 | 46 to 75 | 76 to 100 | 76 to 100
Cc1c(-c2ccn(C(C)C)n2)sc2nc(-c3nccn3C)nc(NCC3CCCO3)c12 (racemic) [Compound 26, rac-6-(1-Isopropyl-1H-pyrazol-3-yl)-5-methyl-2-(1-methyl-1H-imidazol-2-yl)-N-((tetrahydrofuran-2-yl)methyl)thieno[2,3-d]pyrimidin-4-amine] | 0 | 0 | > 10 | 46 to 75 | 76 to 100 | 76 to 100
COCCCOc1nc(-c2nccn2C)nc2sc(-c3ccn(C(C)C)n3)c(C)c12 [Compound 32, 6-(1-Isopropyl-1H-pyrazol-3-yl)-4-(3-methoxypropoxy)-5-methyl-2-(1-methyl-1H-imidazol-2-yl)thieno[2,3-d]pyrimidine] | 0 | 1 to 25 | 5 to 10 | 76 to 100 | 46 to 75 | 46 to 75
